This is an account of results in US20240376100A1 (Redona Therapeutics, Inc., priority 2021, published 2024).

This assay deals with PAPD5 enzyme (Homo sapiens, UniProt Q8NDF8). Put plainly: PAPD5 assay (AMP incorporation onto 3'-terminus of RNA substrate, fluorescence quench). Type of assay: biochemical. The conditions noted are these: PAPD5 protein 0.3 nM, ATP 50 μM, 30 minutes preincubation, room temperature; read-out: Potency PAPD5 IC50. Put shortly: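 Enzyme at 0.3 nM with 50 μM ATP, pH 7.3 HEPES buffer, preincubated with compound 30 minutes at room temperature; 5 nM 5′-fluorescein RNA substrate and 20 nM TAMRA quench probe then added. Initial rates from kinetic fluorescein decrease over ~90 minutes; IC50 by four-parameter fit.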

The term IC50 denotes the midpoint of a concentration-inhibition curve.

Counter-ions that a name gives are not always drawn.

Sequence of PAPD5 enzyme (Q8NDF8 whole entry): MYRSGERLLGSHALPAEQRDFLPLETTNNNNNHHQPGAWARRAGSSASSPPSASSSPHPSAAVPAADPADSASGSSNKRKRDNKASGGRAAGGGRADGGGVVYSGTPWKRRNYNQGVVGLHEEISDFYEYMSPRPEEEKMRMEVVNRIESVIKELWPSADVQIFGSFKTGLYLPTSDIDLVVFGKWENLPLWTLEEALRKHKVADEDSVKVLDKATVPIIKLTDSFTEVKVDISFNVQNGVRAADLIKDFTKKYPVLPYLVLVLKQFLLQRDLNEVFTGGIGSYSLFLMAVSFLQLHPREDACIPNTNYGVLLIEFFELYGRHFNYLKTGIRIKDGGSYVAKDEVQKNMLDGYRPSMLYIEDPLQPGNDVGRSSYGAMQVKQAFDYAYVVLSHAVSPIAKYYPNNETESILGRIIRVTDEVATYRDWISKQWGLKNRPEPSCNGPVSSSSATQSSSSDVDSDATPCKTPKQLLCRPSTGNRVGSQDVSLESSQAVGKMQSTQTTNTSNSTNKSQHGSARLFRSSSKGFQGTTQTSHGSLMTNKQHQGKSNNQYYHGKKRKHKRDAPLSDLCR

As for `CC(C)Cn1cc(C(=O)O)c(=O)c2cc(Cl)c(N3Cc4cccnc4C3)nc21` [Example 34, 6-chloro-7-(5,7-dihydro-6H-pyrrolo[3,4-b]pyridin-6-yl)-1-isobutyl-4-oxo-1,4-dihydro-1,8-naphthyridine-3-carboxylic acid], the IC50 is at most 1000 nM.

`O=C(O)c1cn(CC2CCC2)c2nc(N3Cc4cccnc4C3)c(Cl)cc2c1=O` [Example 6, 6-chloro-1-(cyclobutylmethyl)-4-oxo-7-{5H,6H,7H-pyrrolo[3,4-b]pyridin-6-yl}-1,4-dihydro-1,8-naphthyridine-3-carboxylic acid]: the IC50 was at most 1000 nM. `Cc1cc(N2CC(N(C)C)C2)ncc1-n1cc(C(=O)O)c(=O)c2cc(Cl)c(N3Cc4cccnc4C3)nc21` [Example 188, 6-chloro-7-(5,7-dihydro-6H-pyrrolo[3,4-b]pyridin-6-yl)-1-(6-(3-(dimethylamino)azetidin-1-yl)-4-meth-ylpyridin-3-yl)-4-oxo-1,4-dihydro-1,8-naphthyridine-3-carboxylic acid]: the concentration for half-maximal inhibition (IC50) was at most 1000 nM. For `COCCN1CCC(Cn2cc(C(=O)O)c(=O)c3cc(Cl)c(N4Cc5cccnc5C4)cc32)CC1` [Example 125, 6-chloro-7-(5,7-dihydro-6H-pyrrolo[3,4-b]pyridin-6-yl)-1-((1-(2-methoxyethyl)piperidin-4-yl)methyl)-4-oxo-1,4-dihydroquinoline-3-carboxylic acid hydrochloride], the IC50 was at most 1000 nM. As to `COc1cnc(-n2cc(C(=O)O)c(=O)c3cc(Cl)c(N4Cc5cccnc5C4)nc32)cn1` [Example 74, 6-chloro-7-(5,7-dihydro-6H-pyrrolo[3,4-b]pyridin-6-yl)-1-(5-methoxypyrazin-2-yl)-4-oxo-1,4-dihydro-1,8-naphthyridine-3-carboxylic acid], the 50% inhibitory concentration (IC50) was at most 1000 nM. As for `CN(C)CCOc1ccc(-n2cc(C(=O)O)c(=O)c3cc(C#N)c(N4Cc5cccnc5C4)cc32)cn1` [Example 59, 6-cyano-7-(5,7-dihydro-6H-pyrrolo[3,4-b]pyridin-6-yl)-1-(6-(2-(dimethylamino)ethoxy)pyridin-3-yl)-4-oxo-1,4-dihydroquinoline-3-carboxylic acid hydrochloride], the IC50 is at most 1000 nM.

For `COCCN1CCC(Cn2cc(C(=O)O)c(=O)c3cc(Cl)c(N4Cc5cccnc5C4)nc32)CC1` [Example 100, 6-chloro-7-(5,7-dihydro-6H-pyrrolo[3,4-b]pyridin-6-yl)-1-((1-(2-methoxyethyl)piperidin-4-yl)methyl)-4-oxo-1,4-dihydro-1,8-naphthyridine-3-carboxylic acid hydro chloride], the IC50 was at most 1000 nM.

Consider `Cc1cc(N)ncc1-n1cc(C(=O)O)c(=O)c2cc(Cl)c(N3CCc4cccnc4C3)nc21` [Example 180, 1-(6-amino-4-methylpyridin-3-yl)-6-chloro-7-(5,8-dihydro-1,7-naphthyridin-7(6H)-yl)-4-oxo-1,4-dihydro-1,8-naphthyridine-3-carboxylic acid], for which the IC50 is at most 1000 nM. Turning to `COCCOc1ccc(-n2cc(C(=O)O)c(=O)c3cc(C#N)c(N4Cc5cccnc5C4)cc32)cn1` [Example 58, 6-cyano-7-(5,7-dihydro-6H-pyrrolo[3,4-b]pyridin-6-yl)-1-(6-(2-methoxyethoxy)pyridin-3-yl)-4-oxo-1,4-dihydroquinoline-3-carboxylic acid], the IC50 was at most 1000 nM. Consider `Cc1cc(N)ncc1-n1cc(C(=O)O)c(=O)c2ccc(N3Cc4cccnc4C3)c(F)c21` [Example 154, 1-(6-amino-4-methylpyridin-3-yl)-7-5,7-dihydro-6H-pyrrolo[3,4-b]pyridin-6-yl)-8-fluoro-4-oxo-1,4-dihydroquinoline-3-carboxylic acid hydrochloride], for which the IC50 is at most 1000 nM. As for `CNc1cc(C)c(-n2cc(C(=O)O)c(=O)c3cc(Cl)c(N4Cc5cccnc5C4)nc32)cn1` [Example 170, 6-chloro-7-(5,7-dihydro-6H-pyrrolo[3,4-b]pyridin-6-yl)-1-(4-methyl-6-(methylamino)pyridin-3-yl)-4-oxo-1,4-dihydro-1,8-naphthyridine-3-carboxylic acid], the figure is at most 1000 nM; as for `N#Cc1cc2c(=O)c(C(=O)O)cn(-c3cnccn3)c2cc1N1Cc2cccnc2C1` [Example 47, 6-cyano-7-(5,7-dihydro-6H-pyrrolo[3,4-b]pyridin-6-yl)-4-oxo-1-(pyrazin-2-yl)-1,4-dihydroquinoline-3-carboxylic acid], at most 1000 nM. As for `Cc1ccccc1Cn1cc(C(=O)O)c(=O)c2cc(Cl)c(N3Cc4cccnc4C3)nc21` [Example 70, 6-chloro-7-(5,7-dihydro-6H-pyrrolo[3,4-b]pyridin-6-yl)-1-(2-methylbenzyl)-4-oxo-1,4-dihydro-1,8-naphthyridine-3-carboxylic acid], the figure is at most 1000 nM; as for `Cc1cc2c(=O)c(C(=O)O)cn(-c3cnc(N)cc3C)c2cc1N1Cc2cccnc2C1` [Example 141], at most 1000 nM; as for `Cc1cc(N)ncc1-n1cc(C(=O)O)c(=O)c2cc(Cl)c(N3Cc4cncnc4C3)nc21` [Example 179, 1-(6-amino-4-methylpyridin-3-yl)-6-chloro-7-(5,7-dihydro-6H-pyrrolo[3,4-d]pyrimidin-6-yl)-4-oxo-1,4-dihydro-1,8-naphthyridine-3-carboxylic acid], at most 1000 nM. Turning to `O=C(O)c1cn(-c2ccc(O)cc2F)c2cc(-n3ccc(Cl)n3)c(F)cc2c1=O` [Example 12, 7-(3-chloro-1H-pyrazol-1-yl)-6-fluoro-1-(2-fluoro-4-hydroxyphenyl)-4-oxo-1,4-dihydroquinoline-3-carboxylic acid], the IC50 was at most 1000 nM. Next, `Cc1cc(NC(=O)OC(C)(C)C)ncc1-n1cc(C(=O)O)c(=O)c2cc(Cl)c(N3CCc4cccnc4C3)nc21` [Example 182, 1-(6-((tert-butoxycarbonyl)amino)-4-methylpyridin-3-yl)-6-chloro-7-(5,8-dihydro-1,7-naphthyridin-7(6H)-yl)-4-oxo-1,4-dihydro-1,8-naphthyridine-3-carboxylic acid]: at most 1000 nM; `Cc1cc(N)ncc1-n1cc(C(=O)O)c(=O)c2cc(F)c(N3CCc4ccccc4C3)cc21` [Example 181, 1-(6-amino-4-methylpyridin-3-yl)-7-(3,4-dihydroisoquinolin-2(1H)-yl)-6-fluoro-4-oxo-1,4-dihydroquinoline-3-carboxylic acid]: at most 1000 nM; `Cc1cc(NCCN2CCCCC2)ncc1-n1cc(C(=O)O)c(=O)c2cc(Cl)c(N3Cc4cccnc4C3)nc21` [Example 172, 6-chloro-7-(5,7-dihydro-6H-pyrrolo[3,4-b]pyridin-6-yl)-1-(4-methyl-6-((2-(piperidin-1-yl)ethyl)amino)pyridin-3-yl)-4-oxo-1,4-dihydro-1,8-naphthyridine-3-carboxylic acid]: at most 1000 nM. Regarding `Cc1cc(NC(=O)C(C)C)ncc1-n1cc(C(=O)O)c(=O)c2cc(Cl)c(N3Cc4cccnc4C3)cc21` [Example 83, 6-chloro-7-(5,7-dihydro-6H-pyrrolo[3,4-b]pyridin-6-yl)-1-(6-isobutyramido-4-methylpyridin-3-yl)-4-oxo-1,4-dihydroquinoline-3-carboxylic acid], the half-inhibitory concentration (IC50) is at most 1000 nM. As for `O=C(O)c1cn(-c2ccc(O)cc2F)c2cc(N3Cc4cccnc4C3)c(Cl)cc2c1=O` [Example 27, 6-chloro-7-(5,7-dihydro-6H-pyrrolo[3,4-b]pyridin-6-yl)-1-(2-fluoro-4-hydroxyphenyl)-4-oxo-1,4-dihydroquinoline-3-carboxylic acid], the figure is at most 1000 nM; as for `COc1cc2c(=O)c(C(=O)O)cn(-c3cnc(NC(=O)OC(C)(C)C)cc3C)c2cc1N1Cc2cccnc2C1` [Example 135, 1-(6-((tert-butoxycarbonyl)amino)-4-methylpyridin-3-yl)-7-(5,7-dihydro-6H-pyrrolo[3,4-b]pyridin-6-yl)-6-methoxy-4-oxo-1,4-dihydroquinoline-3-carboxylic acid], at most 1000 nM.

For the molecule `COCCNc1cc(C)c(-n2cc(C(=O)O)c(=O)c3cc(Cl)c(N4Cc5cccnc5C4)nc32)cn1` [Example 151, 6-chloro-7-(5,7-dihydro-6H-pyrrolo[3,4-b]pyridin-6-yl)-1-(6-((2-methoxyethyl)amino)-4-methylpyridin-3-yl)-4-oxo-1,4-dihydro-1,8-naphthyridine-3-carboxylic acid], the IC50 was at most 1000 nM. `Cc1cc(NC(=O)OC(C)(C)C)ncc1-n1cc(C(=O)O)c(=O)c2cc(Cl)c(N3Cc4ccncc4C3)nc21` [Example 167, 1-(6-((tert-butoxycarbonyl)amino)-4-methylpyridin-3-yl)-6-chloro-7-(1,3-dihydro-2H-pyrrolo[3,4-c]pyridin-2-yl)-4-oxo-1,4-dihydro-1,8-naphthyridine-3-carboxylic acid]: the IC50 was at most 1000 nM.

Turning to `Cc1cc(NC(=O)OC(C)(C)C)ncc1-n1cc(C(=O)O)c(=O)c2cc(Cl)c(N3CCc4ccncc4C3)nc21` [Example 187, 1-(6-((tert-butoxycarbonyl)amino)-4-methylpyridin-3-yl)-6-chloro-7-(3,4-dihydro-2,7-naphthyridin-2(1H)-yl)-4-oxo-1,4-dihydro-1,8-naphthyridine-3-carboxylic acid], the IC50 is at most 1000 nM. Turning to `CN(CCO)c1ccn(-c2nc3c(cc2Cl)c(=O)c(C(=O)O)cn3-c2ccc(N)nc2)n1` [Example 93, 1-(6-aminopyridin-3-yl)-6-chloro-7-(3-((2-hydroxyethyl)(methyl)amino)-1H-pyrazol-1-yl)-4-oxo-1,4-dihydro-1,8-naphthyridine-3-carboxylic acid], the 50% inhibitory concentration (IC50) is at most 1000 nM. As for `Cn1cc(Cn2cc(C(=O)O)c(=O)c3cc(Cl)c(N4Cc5cccnc5C4)cc32)cn1` [Example 124, 6-chloro-7-(5,7-dihydro-6H-pyrrolo[3,4-b]pyridin-6-yl)-1-((1-methyl-1H-pyrazol-4-yl)methyl)-4-oxo-1,4-dihydroquinoline-3-carboxylic acid], the figure is at most 1000 nM.
